Experimental data: the supplement of paper PMC13380429

Columns and labels:
Settings in all cases: 72 h
Caco-2 [1] = experiment: cell viability relative to DMSO; higher = less toxic
Calu-3 [2] = experiment: as above
HepG2 [3] = experiment: as above
U2OS [4] = experiment: as above
Vero E6 [5] = experiment: as above
Caco-2 [6] = experiment: relative viability EC50 (midpoint between 100% and the lowest measured viability); higher = less toxic
Calu-3 [7] = experiment: as above
HepG2 [8] = experiment: as above
U2OS [9] = experiment: as above
Vero E6 [10] = experiment: as above
Caco-2 [11] = experiment: drug sensitivity score (DSS) for viability; higher = more toxic; extreme values may be limits of the assay
Calu-3 [12] = experiment: as above
HepG2 [13] = experiment: as above
U2OS [14] = experiment: as above
Vero E6 [15] = experiment: as above

| Compound | cell viability (Caco-2 [1]; 1 nM) | cell viability (Caco-2 [1]; 10 nM) | cell viability (Caco-2 [1]; 100 nM) | cell viability (Caco-2 [1]; 1000 nM) | cell viability (Caco-2 [1]; 10000 nM) | cell viability (Calu-3 [2]; 1 nM) | cell viability (Calu-3 [2]; 10 nM) | cell viability (Calu-3 [2]; 100 nM) | cell viability (Calu-3 [2]; 1000 nM) | cell viability (Calu-3 [2]; 10000 nM) | cell viability (HepG2 [3]; 1 nM) | cell viability (HepG2 [3]; 10 nM) | cell viability (HepG2 [3]; 100 nM) | cell viability (HepG2 [3]; 1000 nM) | cell viability (HepG2 [3]; 10000 nM) | cell viability (U2OS [4]; 1 nM) | cell viability (U2OS [4]; 10 nM) | cell viability (U2OS [4]; 100 nM) | cell viability (U2OS [4]; 1000 nM) | cell viability (U2OS [4]; 10000 nM) | cell viability (Vero E6 [5]; 1 nM) | cell viability (Vero E6 [5]; 10 nM) | cell viability (Vero E6 [5]; 100 nM) | cell viability (Vero E6 [5]; 1000 nM) | cell viability (Vero E6 [5]; 10000 nM) | relative viability EC50 (Caco-2 [6]) | relative viability EC50 (Calu-3 [7]) | relative viability EC50 (HepG2 [8]) | relative viability EC50 (U2OS [9]) | relative viability EC50 (Vero E6 [10]) | drug sensitivity score (Caco-2 [11]) | drug sensitivity score (Calu-3 [12]) | drug sensitivity score (HepG2 [13]) | drug sensitivity score (U2OS [14]) | drug sensitivity score (Vero E6 [15]) |
| --- | --- | --- | --- | --- | --- | --- | --- | --- | --- | --- | --- | --- | --- | --- | --- | --- | --- | --- | --- | --- | --- | --- | --- | --- | --- | --- | --- | --- | --- | --- | --- | --- | --- | --- | --- |
| NCC[C@H](O)C(=O)N[C@@H]1C[C@H](N)[C@@H](O[C@H]2O[C@H](CN)[C@@H](O)[C@H](O)[C@H]2O)[C@H](O)[C@H]1O[C@H]1O[C@H](CO)[C@@H](O)[C@H](N)[C@H]1O [amikacin] | 95.7% | 103% | 99.5% | 104% | 104% | 100% | 99.7% | 94.9% | 105% | 91.5% | 101% | 104% | 96.6% | 92.6% | 113% | 97.5% | 98.3% | 98.9% | 103% | 97.9% | 94.8% | 98.5% | 96.9% | 94.5% | 103% | > 10 µM | > 10 µM | > 10 µM | > 10 µM | > 10 µM | 0 | 0 | 0 | 0 | 0 |
| N#CC(c1ccc(Cl)cc1)c1c(Cl)cc(-n2ncc(=O)[nH]c2=O)cc1Cl (stereo not given) [diclazuril] | 100% | 93.7% | 107% | 86.3% | 110% | 98% | 84.7% | 94.2% | 92.9% | 107% | 101% | 102% | 121% | 110% | 91% | 98.6% | 98.5% | 95.7% | 94.8% | 100% | 99.4% | 100% | 92.2% | 95.8% | 109% | > 10 µM | > 10 µM | > 10 µM | > 10 µM | > 10 µM | 0 | 0 | 0 | 0 | 0 |
| Cc1ccc(C(=O)N(CCCN)[C@@H](c2oc3cc(Cl)ccc3c(=O)c2Cc2ccccc2)C(C)C)cc1 | 98.9% | 78.2% | 62% | 66.1% | 5.6% | 98.2% | 91.5% | 89.1% | 90% | 0.4% | 102% | 45.1% | 36.9% | 34.4% | 0.1% | 100% | 74.6% | 52.7% | 52% | 8.2% | 99.4% | 87.5% | 44.7% | 42% | -0.2% | 0.469 µM | 2.33 µM | 0.0342 µM | 0.165 µM | 0.169 µM | 14.3 | 7.2 | 27.1 | 18.1 | 19.7 |
| C[S+]([O-])c1ccc(-c2nc(-c3ccc(F)cc3)c(-c3ccncc3)[nH]2)cc1 (stereo not given) | 111% | 97% | 103% | 95.1% | 84% | 106% | 101% | 98.2% | 98.4% | 101% | 104% | 105% | 96.1% | 107% | 91.8% | 104% | 102% | 102% | 95.5% | 96.9% | 99% | 112% | 97.2% | 110% | 92.3% | > 10 µM | > 10 µM | > 10 µM | > 10 µM | > 10 µM | 0.8 | 0 | 0 | 0 | 0 |
| Cc1oc2nc3c(c(NC(=O)CN4CCCC4=O)c2c1C)CCCC3 [BCI-540] | 94.4% | 99.2% | 99.8% | 103% | 101% | 90.2% | 101% | 94.4% | 104% | 107% | 88.7% | 100% | 98.5% | 98% | 94.3% | 100% | 99.8% | 97.8% | 105% | 101% | 93.2% | 93.8% | 99.5% | 92.5% | 110% | > 10 µM | > 10 µM | > 10 µM | > 10 µM | > 10 µM | 0 | 0 | 0 | 0 | 0 |
| CCCOc1ccc(C(=O)OCCN(CC)CC)cc1N [proxymetacaine] | 92.8% | 87% | 102% | 90% | 104% | 102% | 96.8% | 94.2% | 101% | 102% | 88.5% | 102% | 99.1% | 113% | 97.9% | 99.9% | 97% | 101% | 97.2% | 102% | 97.2% | 95.9% | 91.9% | 97.1% | 107% | > 10 µM | > 10 µM | > 10 µM | > 10 µM | > 10 µM | 0 | 0 | 0 | 0 | 0 |
| C[C@@H]1CN([C@H]2CC[C@](C#N)(c3ccc(F)cc3)CC2)CC[C@]1(C(=O)O)c1ccccc1 [levocabastine] | 103% | 104% | 108% | 99.5% | 99.3% | 94.2% | 99.3% | 109% | 99.4% | 96.2% | 91.5% | 99.6% | 93.6% | 93.7% | 94.2% | 97.8% | 98% | 104% | 98% | 105% | 102% | 106% | 100% | 104% | 100% | > 10 µM | > 10 µM | > 10 µM | > 10 µM | > 10 µM | 0 | 0 | 0 | 0 | 0 |
| Cc1[nH]c2ccc(Cl)cc2c1C1=CCNCC1 | 95.9% | 102% | 99.4% | 97% | 81.7% | 109% | 106% | 99.8% | 103% | 91.5% | 93.2% | 94.7% | 97.1% | 95.3% | 89.9% | 96.5% | 103% | 95.4% | 96.5% | 88.9% | 98.1% | 96.4% | 99.6% | 96% | 91.7% | > 10 µM | > 10 µM | > 10 µM | > 10 µM | > 10 µM | 0.8 | 0 | 0 | 0 | 0 |
| O=S(=O)(O)c1ccc(O)cc1 [4-phenolsulfonic-acid] | 102% | 101% | 98.4% | 103% | 98.4% | 102% | 103% | 104% | 95.1% | 97.1% | 104% | 92.3% | 116% | 105% | 97.8% | 100% | 104% | 97% | 97.6% | 101% | 100% | 95.7% | 92.6% | 100% | 94.5% | > 10 µM | > 10 µM | > 10 µM | > 10 µM | > 10 µM | 0 | 0 | 0 | 0 | 0 |
| CNC(=O)c1ccc(-c2cnc3ncc(Cc4ccc5ncccc5c4)n3n2)cc1F [INC-280] | 97.9% | 90.7% | 96.6% | 104% | 88.4% | 101% | 103% | 99.9% | 101% | 110% | 89.2% | 100% | 88.8% | 111% | 82.6% | 107% | 95.7% | 99.6% | 98.1% | 102% | 95.7% | 98.4% | 91.5% | 96.1% | 83% | > 10 µM | > 10 µM | > 10 µM | > 10 µM | > 10 µM | 0 | 0 | 0.2 | 0 | 0.3 |
| CC(C)c1cccc2c1OC(C(C)C)C(=S)N2CC(=O)O (stereo not given) [AD-5467] | 91.3% | 96.9% | 91.2% | 91.9% | 96.4% | 104% | 106% | 92% | 91.1% | 107% | 93.6% | 97.2% | 98.5% | 98% | 96.6% | 102% | 98.5% | 98.9% | 96.5% | 98% | 95.7% | 102% | 93.5% | 99.3% | 95.1% | > 10 µM | > 10 µM | > 10 µM | > 10 µM | > 10 µM | 0 | 0 | 0 | 0 | 0 |
| COc1ccc2cc(-c3cc(-c4cc(Cl)cc(Cl)c4)nn3[C@@H](C)c3ccc(C(=O)NCCC(=O)O)cc3)ccc2c1 [MK-0893] | 87.9% | 93.7% | 95.8% | 90.1% | 87.6% | 110% | 94.7% | 97.7% | 96.2% | 91.3% | 88.5% | 106% | 86.8% | 93.8% | 90% | 95.8% | 98.2% | 93.9% | 96.8% | 89.6% | 97.7% | 102% | 98.8% | 92.3% | 84.5% | > 10 µM | > 10 µM | > 10 µM | > 10 µM | > 10 µM | 0 | 0 | 0 | 0 | 0.6 |
